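48-hour exposure; five concentrations; linearly interpolated endpoints. Here, GI50 denotes the concentration required for 50% inhibition of growth.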 Active and inactive are the calls of the source. No stated cut-off is given here; in the data, active = GI50 up to about 1.1 µM and inactive = higher.

The term GI50 denotes the concentration at which growth is held to half of that of the control.

Test systems include KM12; OVCAR-8; 786-0; SK-MEL-28; SF-268; RPMI-8226; NCI-H522; HL-60; HCT-116; CCRF-CEM; UACC-62; SK-MEL-5; SK-MEL-2; HT-29.
What all share (experiment): DTP human tumour cell line panel, 48 h

For the molecule `Cc1cccc(C)c1NC(=O)CCCC(=O)C1/C(=N/NC(=O)CC#N)CCC/C1=N\NC(=O)CC#N` (stereo not given), the GI50 in the test with KM12, with OVCAR-8, in the test on 786-0, in the test on SK-MEL-28, with SF-268 and with RPMI-8226 was > 100 µM (inactive) in each case. For the same molecule, the GI50 in the test with NCI-H522, with HL-60, with HCT-116, with CCRF-CEM, in the test on UACC-62 and in the test with SK-MEL-5 was > 100 µM (inactive) each time. Besides, the GI50 with SK-MEL-2 and in the test on HT-29 was > 100 µM (inactive) each time.
For the molecule `CC#Cc1c(C#CC)c(OC)c2c(c1OC)C(=O)c1ccccc1C2=O`, the GI50 in the test on KM12 is > 100 µM (inactive); with OVCAR-8 it was 66.5 µM (inactive); in the test with 786-0, 23.3 µM (inactive); in the test on SK-MEL-28, > 100 µM (inactive); in the test with SF-268, 25.7 µM (inactive); with RPMI-8226 it was 39.2 µM (inactive). The GI50 in the test on NCI-H522 was 3.15 µM (inactive); in the test on HL-60, 33 µM (inactive); with HCT-116, 15.9 µM (inactive); in the test with CCRF-CEM, > 100 µM (inactive); with UACC-62, 23.9 µM (inactive); with SK-MEL-5 it was 49.1 µM (inactive). Further, the GI50 in the test with SK-MEL-2 is 38.5 µM (inactive); in the test on HT-29 it was > 100 µM (inactive).
For the molecule `CCCCC/C=C1\CCC(CN(C)C)C1=O` (stereo not given), the GI50 with KM12 is 4.8 µM (inactive); in the test with OVCAR-8 it was > 21.5 µM (inactive); in the test with 786-0, 2.71 µM (inactive); in the test with SK-MEL-28, 9.89 µM (inactive); in the test on SF-268, 19.1 µM (inactive); with RPMI-8226, 0.386 µM (active). The GI50 was 4.06 µM (inactive) with NCI-H522; 6.97 µM (inactive) with HL-60; 11.8 µM (inactive) in the test with HCT-116; 1.56 µM (inactive) in the test on CCRF-CEM; 15.9 µM (inactive) in the test on UACC-62; 18.2 µM (inactive) with SK-MEL-5. In addition, the GI50 in the test with SK-MEL-2 was 19.9 µM (inactive); in the test on HT-29 it was 28.2 µM (inactive).
For `CC(C)N(C(=O)C12C3C4C1C1C2C3C41C#N)C(C)C` (stereo not given), the GI50 with KM12 was > 100 µM (inactive); in the test on OVCAR-8, > 100 µM (inactive); in the test with 786-0 it was > 100 µM (inactive); in the test with SK-MEL-28, > 100 µM (inactive); with SF-268 it was > 100 µM (inactive); in the test on RPMI-8226, > 46.7 µM (inactive). Further, the GI50 in the test on NCI-H522 is > 87.1 µM (inactive); in the test with HL-60 it was > 41.4 µM (inactive); with HCT-116 it was > 100 µM (inactive); with CCRF-CEM, > 50 µM (inactive); with UACC-62, > 100 µM (inactive); with SK-MEL-5, > 100 µM (inactive). The GI50 in the test on SK-MEL-2 and with HT-29 was > 100 µM (inactive) each time.
For `COc1ccc(C2=C3c4cc(OC)c(OC)cc4CCN3C(=S)SS2)cc1OC`, the GI50 was 66.7 µM (inactive) in the test with KM12; > 100 µM (inactive) with OVCAR-8; > 100 µM (inactive) in the test with 786-0; 70.6 µM (inactive) in the test on SK-MEL-28; 72.1 µM (inactive) in the test with SF-268; 63.2 µM (inactive) with RPMI-8226. The GI50 in the test on NCI-H522 was 50.1 µM (inactive); in the test with HL-60, 24.4 µM (inactive); with HCT-116, > 100 µM (inactive); in the test with CCRF-CEM, 46.5 µM (inactive); in the test on UACC-62 it was 22 µM (inactive); with SK-MEL-5 it was 13.3 µM (inactive). For the same molecule, the GI50 in the test on SK-MEL-2 is 57 µM (inactive); in the test on HT-29 it was 72.8 µM (inactive).
Regarding `C/C(CN1C(=O)c2ccccc2C1=O)=N\NS(=O)(=O)c1ccc(F)cc1`, the GI50 in the test on KM12, in the test on OVCAR-8, with 786-0, with SK-MEL-28, in the test with SF-268 and in the test on RPMI-8226 was > 100 µM (inactive) each time. Besides, the GI50 with NCI-H522, with HL-60, with HCT-116, in the test on CCRF-CEM, in the test on UACC-62 and in the test on SK-MEL-5 was > 100 µM (inactive) in each case. Also, the GI50 in the test on SK-MEL-2 and in the test with HT-29 was > 100 µM (inactive) throughout.
With `CC(=O)/C=C/c1ccc(C)cc1`, the GI50 in the test with KM12, with OVCAR-8, in the test with 786-0, in the test with SK-MEL-28, in the test with SF-268 and with RPMI-8226 was > 100 µM (inactive) in each case. Also, the GI50 in the test with NCI-H522, in the test with HL-60, with HCT-116, in the test with CCRF-CEM, with UACC-62 and in the test on SK-MEL-5 was > 100 µM (inactive) each time. Also, the GI50 with SK-MEL-2 and in the test on HT-29 was > 100 µM (inactive) in each case.
On to `C/C=C/C=N/N(C(=O)c1cc([N+](=O)[O-])cc([N+](=O)[O-])c1)C1=NN=C(c2ccccc2)C(c2ccccc2)N1` (stereo not given), for which the GI50 was 46.2 µM (inactive) in the test on KM12; 89.9 µM (inactive) with OVCAR-8; 80.4 µM (inactive) in the test with 786-0; 97.7 µM (inactive) with SK-MEL-28; 47.2 µM (inactive) in the test on SF-268; 24.4 µM (inactive) in the test on RPMI-8226. In addition, the GI50 in the test with NCI-H522 is 21.4 µM (inactive); with HL-60, 18.6 µM (inactive); in the test with HCT-116, 30.2 µM (inactive); with CCRF-CEM it was 36.7 µM (inactive); in the test on UACC-62, 51.8 µM (inactive); in the test on SK-MEL-5 it was 27.2 µM (inactive). The GI50 was 74 µM (inactive) in the test on SK-MEL-2 and 35.6 µM (inactive) in the test with HT-29.
For `CN(C)CCn1c2ccccc2c2nc3cc4ccccc4cc3nc21`, the GI50 in the test with KM12 is 3.74 µM (inactive); in the test on OVCAR-8 it was 5.9 µM (inactive); with 786-0, 3.23 µM (inactive); in the test on SK-MEL-28, 9.23 µM (inactive); in the test with SF-268 it was 2.14 µM (inactive); in the test with RPMI-8226, 2.91 µM (inactive). The GI50 in the test with NCI-H522 is 5.79 µM (inactive); in the test on HL-60 it was 1.86 µM (inactive); with HCT-116, 3.79 µM (inactive); in the test on CCRF-CEM it was 2.88 µM (inactive); in the test with UACC-62, 9.14 µM (inactive); with SK-MEL-5, 10.1 µM (inactive). The GI50 was 11.1 µM (inactive) with SK-MEL-2 and 0.643 µM (active) in the test on HT-29.
With `O=C(Nc1cc(C(F)(F)F)ccc1Cl)C(=O)C(C(=O)c1ccc2ccccc2c1)C1OC(=O)c2ccccc21` (stereo not given), the GI50 in the test on KM12 is 13.3 µM (inactive); in the test on OVCAR-8, 5.09 µM (inactive); in the test with 786-0 it was 5.26 µM (inactive); in the test on SK-MEL-28, 5.13 µM (inactive); in the test on SF-268 it was 4.13 µM (inactive); in the test with RPMI-8226 it was 4.25 µM (inactive). Also, the GI50 in the test on NCI-H522 was 4.29 µM (inactive); in the test on HL-60 it was 11 µM (inactive); with HCT-116, 4.8 µM (inactive); with CCRF-CEM, 4.11 µM (inactive); in the test with UACC-62, 7.26 µM (inactive); in the test with SK-MEL-5 it was 7.69 µM (inactive). Further, the GI50 in the test with SK-MEL-2 is 12.6 µM (inactive); in the test on HT-29, 13.8 µM (inactive).

The record behind these values is ChEMBL document CHEMBL1201862, “PubChem BioAssay data set” (2004).
